Holding throughout (assay type): cell-based
The test system of assay [1] is Propionibacterium granulosum ATCC 25564. The assay can be described thus: Spot on lawn method (Example IV), nisin. Conditions: 4,000 International Units per milliliter. Here is the method:
(§1) Propionibacterium acnes, Propionibacterium granulosum, or other cutaneous propionibacteria to be examined for sensitivity to the bacteriocin are grown in actinomyces broth at 37° C. for 2 days under anaerobic conditions. Cultures (15 μL) being examined for sensitivity are added to soft actinomyces agar (5 ml) and the mixture is applied uniformly over each actinomyces agar plate. Preparations concentrated so as to contain 6,400 Activity Units/ml of bacteriocins are spotted (25 μl spots) onto the surface of the prepared plates. These plates are held at 37° C. for 2 days under anaerobic conditions to permit growth of the cutaneous culture and examined for zones of inhibition (lack of growth) where the bacteriocin was applied. Zones are evidence of bacteriocin inhibition.
(§2) Specifically, a solution of nisin containing 4,000 International Units per milliliter was tested for activity against Propionibacterium acnes ATCC 6919, Propionibacterium acnes ATCC 11827, Propionibacterium avidum ATCC 25577 and Propionibacterium granulosum ATCC 25564 according to the method described in Example IV above. It was observed that nisin inhibited all of the cutaneous cultures.

For assay [2], the system named is Propionibacterium acnes ATCC 6919. The assay can be described thus: Spot on lawn method (Example IV), nisin. The following applies: 4,000 International Units per milliliter. Here is the method: as §1, §2
For assay [3], the system named is Propionibacterium acnes ATCC 11827. The assay is described as follows: Spot on lawn method (Example IV), nisin. Conditions: 4,000 International Units per milliliter. The method, then: as §1, §2
Assay [4] relates to Propionibacterium avidum ATCC 25577. The assay can be described thus: Spot on lawn method (Example IV), nisin. The following applies: 4,000 International Units per milliliter. The method, then: as §1, §2
The test system of assay [5] is Propionibacterium granulosum ATCC 25564. The assay is described as follows: Broth culture growth with nisin. The following applies: 400 International Units per milliliter, anaerobic, 37° C., 24 hours. The method, then: (§3) Nisin at a final concentration of 400 International Units per milliliter was also added to broth cultures of each of the above bacteria strains. The broth cultures were incubated anaerobically at 37° C. for 24 hours.

Assay [6] concerns Propionibacterium acnes ATCC 6919. The assay can be described thus: Broth culture growth with nisin. Conditions: 400 International Units per milliliter, anaerobic, 37° C., 24 hours. The method, then: as §3
The subject of assay [7] is Propionibacterium acnes ATCC 11827. The assay can be described thus: Broth culture growth with nisin. The following applies: 400 International Units per milliliter, anaerobic, 37° C., 24 hours. Here is the method:
as §3

Assay [8] relates to Propionibacterium avidum ATCC 25577. The assay is described as follows: Broth culture growth with nisin. Conditions: 400 International Units per milliliter, anaerobic, 37° C., 24 hours. Here is the method: as §3

With nisin, the “inhibition (zones)” value in assay [1], in assay [2], in assay [3] and in assay [4] was “inhibited” throughout. Further, the “growth of broth culture” value in assay [5], in assay [6], in assay [7] and in assay [8] was “markedly reduced the growth” in each case.
